For one compound, Triple point temperature results are on record in the NIST ThermoML archive (doi:10.1016/j.jct.2007.11.001).

Numbers after ± are expanded uncertainties.

For this data set the following is noted: Crystal 2; Adiabatic calorimetry.

Consider `O=P([O-])([O-])[O-].[Cs+].[Mg+2]` [caesium-magnesium monophosphate], for which the Triple point temperature is recorded as 235.69 ± 0.2 K.
